Entries after “also recorded” stand apart in the source; their conditions may differ. Where a name gives a salt, the structure may show the parent alone.
Columns and labels:
[1] = test system: Eosinophilic Esophagitis (EoE); assay: Example 1: oral Irsogladine maleate in patient one with active eosinophilic esophagitis; format: in vivo, human; settings: 12 weeks
Description: […] […] […] A esophageal pH-metric study, performed without PPI treatment, was informed as normal. […] Without other type of examination, JCC was empirically treated in three occasions with Budesonide.
When seen, JCC was symptomatic, with difficulties to swallow food. Because of the symptoms and clinical history, Eosinophilic Esophagitis was suspected (Lucendo A J, et al. supra; Dellon E S, et al. supra; Lipowska A M, Kavitt R T. Current Diagnostic and Treatment Strategies for Eosinophilic Esophagitis. Gastroenterol Hepatol (N Y) 2017; 13(9):527-535). […] They had neither blood nor urine biological tests abnormalities. […] An Enteral Magnetic Resonance Imaging was informed as normal, without inflammatory features, increased wall thickness or strictures in the gastro-intestinal tract.
Simultaneously, biopsies were taken in all organs examined. […] Biopsies met the histological criteria of active eosinophil esophagitis (Lee S, de Boer W B, Naran A, et al. More than just counting eosinophils: proximal oesophageal involvement and subepithelial sclerosis are major diagnostic criteria for eosinophilic oesophagitis. J Clin Pathol. 2010; 63 (7):644-647; Collins M H, Capocelli K, Yang G Y. Eosinophilic Gastrointestinal Disorders Pathology. Front Med (Lausanne). 2018; 4:261). Gastric, duodenal and upper jejunal biopsies were reported as normal.
Consequently, JJC was diagnosed with active eosinophlic esophagitis. At this point in time, JJC was treated with oral Irsogladine maleate tablets, 2 mg twice a day during 12 weeks, exempting JJC from other therapies.
Also, at end of the Irsogladine treatment, endoscopic examination was repeated using Narrow Band Imaging (NBI). This technique is able to detect minimal changes in mucosa surface.

[2] = test system: Eosinophilic Esophagitis (EoE); assay: Example 2: oral Irsogladine maleate in patient three with eosinophilic esophagitis; format: in vivo, human
Method: […] […] […] Pain tended to increase while eating.
Endoscopic procedures were performed. Colonoscopy of the entire colon and 20 cm of the distal ileum were informed as normal and staged biopsies were taken. […] Biopsies were taken in all upper gastrointestinal tract organs examined. Both, clinical symptoms and endoscopic findings are in accordance with the clinical and endoscopic criteria of EoE (Lucendo A J, Molina-Infante J, Arias Á, et al. Guidelines on eosinophilic esophagitis: evidence-based statements and recommendations for diagnosis and management in children and adults. United European Gastroenterol J. 2017; 5 (3):335-358; Dellon E S, Liacouras C A, Molina-Infante J, et al. Updated International Consensus Diagnostic Criteria for Eosinophilic Esophagitis: Proceedings of the AGREE Conference. Gastroenterology. 2018; 155 (4):1022-1033.e10.; Lipowska AM, Kavitt R T. Current Diagnostic and Treatment Strategies for Eosinophilic Esophagitis. Gastroenterol Hepatol (N Y) 2017; 13 (9):527-535; Hirano I, Moy N, Heckman M G, Thomas C S, Gonsalves N, Achem S R. Endoscopic assessment of the oesophageal features of eosinophilic oesophagitis: validation of a novel classification and grading system. Gut. 2013; 62 (4):489-495; Muir A B, Merves J, Liacouras C A. Role of Endoscopy in Diagnosis and Management of Pediatric Eosinophilic Esophagitis. Gastrointest Endosc Clin N Am. 2016; 26 (1):187-200).
These biopsies meet the diagnostic criteria of Eosinophilic Esophagitis (Lee S, de Boer W B, Naran A, et al. More than just counting eosinophils: proximal oesophageal involvement and subepithelial sclerosis are major diagnostic criteria for eosinophilic oesophagitis. J Clin Pathol. 2010; 63 (7):644-647; Collins M H, Capocelli K, Yang G Y. Eosinophilic Gastrointestinal Disorders Pathology. Front Med (Lausanne). 2018; 4: 261).
Upon confirming the diagnosis with Eosinophilic Esophagitis, JPV was treated with 4 mg of oral Irsogladine maleate twice a day for 8 weeks, without following any other treatment such as food elimination or pharmaceutical treatments (i.e. corticosteroids or monoclonal antibodies).
Due to the therapeutic efficacy shown by Irsogladine administration, it was decided to prolong JPV treatment for an additional 24 weeks (in total 32 weeks), at the same dose, with regular telephone and presential checking of symptoms and general health. […] Esophageal biopsies were taken showing no excess of eosinophil infiltrate (<10 cells/hpf) (FIGS. 12 and 13). There was neither peripheral blood eosinophilia (315 cells mm^3) nor anemia or any biological signs of inflammation.

[3] = test system: EoE and EoGIDs; settings: cited from earlier work
[4] = test system: eosinophilic jejunitis; assay: Example 3: Irsogladine maleate in patient two with mild eosinophilic jejunitis; format: in vivo, human
[5] = patients with EoE or EoGIDs, literature reports
[6] = 2 mg twice a day, listed as Irsogladine Maleate
[7] = 4 mg twice a day, 8 weeks, listed as Irsogladine Maleate

With Nc1nc(N)nc(-c2cc(Cl)ccc2Cl)n1 [Irsogladine, 6-(2,5-Dichlorophenyl)-1,3,5-triazine-2,4-diamine] the disease remission ([1]; 2 mg twice a day) was “therapeutically effective in inducing disease remission”, the “endoscopic examination of esophageal mucosa (Narrow Band Imaging)” value ([1]; 2 mg twice a day) was “esophageal mucosal furrows, white plaques and trachealization lesions had disappeared” and the “histologic features of esophageal biopsy (eosinophil infiltration, intercellular spaces)” value ([1]; 2 mg twice a day) was “no dilation of intercellular spaces”. For the same compound, the side effects ([1]; 2 mg twice a day) was “No side effects”, the symptoms ([1]; 2 mg twice a day) was “Symptoms had disappeared” and the “eosinophil counts in biopsies of the esophageal mucosa” value ([1]; oral tablets 2 mg twice a day, before treatment more than 30 cells per HPF, EoE threshold 15 counts per HPF) was “less than 5 per HPF”. The “eosinophil counts in esophageal biopsy” value ([2]; 4 mg oral twice a day, 8 weeks, before treatment more than 50 per HPF) was “less than 15 per HPF”, the disease remission ([2]; 4 mg twice a day, 8 weeks) was “therapeutically effective to induce remission” and the “endoscopic aspect of esophageal mucosa” value ([2]; 4 mg twice a day, 8 weeks) was “endoscopically normal”. For the same compound, the “histologic features of esophageal biopsy (eosinophil infiltration, microabscesses, intercellular spaces)” value ([2]; 4 mg twice a day, 8 weeks) was “negligible presence of eosinophil infiltration; also recorded: no eosinophilic microabscesses and absence of intercellular dilated spaces”, the side effects ([2]; 4 mg twice a day, 8 weeks) was “No side effects” and the symptoms ([2]; 4 mg twice a day, 8 weeks) was “completely disappeared”. For the same compound, the “eosinophil infiltrate in esophageal biopsies” value ([2]; 4 mg twice a day, additional 24 weeks (in total 32 weeks)) was under 10 cells/hpf, the “endoscopic aspect of esophageal mucosa” value ([2]; 32 weeks of treatment) was “normal looking mucosa” and the “side effects of long-term administration” value ([2]; 32 weeks of treatment) was “No side effects”.
For “Omalizumab: anti-IgE, targets a highly affinity receptor binding site of human IgE”, the “induction or maintenance of disease remission” value ([3]; eosinophilic esophagitis, literature reports) is listed as “failed to control or induce remission”, the clinical symptoms [3, 5] is listed as “variable effects” and the tissue eosinophil infiltrate [3, 5] is listed as “non-significant decrease”.
In the case of Nc1nc(N)nc(-c2cc(Cl)ccc2Cl)n1 [Irsogladine maleate], the “endoscopic examination of esophageal mucosa (Narrow Band Imaging)” value [1, 6] is reported as “Mucosa white plaques and circular trachealization disappeared”, the “histologic features of esophageal biopsy (eosinophil infiltration, intercellular spaces)” value [1, 6] is reported as “Eosinophil infiltration has clearly reduced, and intercellular spaces are back to normal” and the “endoscopic aspect of esophageal mucosa” value [2, 7] is reported as “Esophageal linear furrows, white plaques and a tendency to trachealization have disappeared”. The “histologic features of esophageal biopsy (eosinophil infiltration, microabscesses, intercellular spaces)” value [2, 7] was “absence of eosinophil infiltration”, the “histological aspect of esophageal mucosa” value ([2]; 32 weeks of treatment) was “strictly normal” and the “endoscopic aspect of esophageal mucosa” value ([2]; 32 weeks of treatment, listed as Irsogladine Maleate) was “normal”. The symptoms ([4]; 4 mg twice a day, after 2 weeks) was “symptoms improved”, the symptoms ([4]; 4 mg twice a day, after 4 weeks) was “fully asymptomatic” and the symptoms ([4]; after 6 months maintenance treatment, 4 mg once a day) was “remained asymptomatic”. The gastrointestinal upper endoscopy ([4]; after 6 months treatment) was “considered normal; also recorded: normal looking upper jejunal mucosa” and the “histology of upper jejunal mucosa biopsy” value ([4]; after six months of daily treatment) was “normal looking villi and no increase of eosinophilic infiltration”.
With CCN(CCCCOC(=O)c1ccc(OC)c(OC)c1)C(C)Cc1ccc(OC)cc1.Cl (stereo not drawn) [Mebeverine Chlorhydrate] the “response of symptoms to earlier symptomatic treatment” value ([4]; Omeprazole 20 mg twice a day and Mebeverine Chlorhydrate 200 mg twice daily, long periods, before Irsogladine) was “no improvement”.
For Benralizumab: mAb against IL-5 receptor, the clinical symptoms [3, 5] is listed as “did not correspond with clinical improvement” and the tissue eosinophil infiltrate [3, 5] is listed as “significant reduction”.
In the case of Infliximab: Anti-TNFα mAb, the clinical symptoms [3, 5] is listed as “have not shown efficacy” and the tissue eosinophil infiltrate [3, 5] is listed as “have not shown efficacy”.
In the case of Cn1cnc([N+](=O)[O-])c1Sc1ncnc2nc[nH]c12 [Azathioprine], the side effects [3, 5] is given as “not free of side effects” and the efficacy ([3]; two reports, small number of cases of EoE and EoGE) is given as “has shown efficacy”.

— patent publication US12478627B2, “Irsogladine for the treatment of eosinophilic gastrointestinal diseases” (EPITHELION SCIENCE BIOTECH, S.L., priority 2019, dated 2025)
